Assay results from PubChem BioAssay AID256 (DTP/NCI, 2004).
Values joined by “and” are separate entries in the source; they are usually repeats but may differ in a detail not shown here. Equal values may be shown once. Toxic doses and inconclusive results are not listed. The calls were made as follows: active = survival T/C of 150% or more; inactive = T/C below 125% in these data.

Tested on: CD2F1 mice, L1210 leukemia ip, survival T/C
Assay: NCI In Vivo Anticancer Drug Screen. Data for tumor model L1210 Leukemia (intraperitoneal) in CD2F1 (CDF1) mice
Settings: higher = longer survival
How it was run: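 Compound-dosed mice with transplantable tumor versus matched vehicle controls; endpoint ratio T/C reported.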

[1] = endpoint: mean survival time, dose: 100.0 mg/kg/injection, schedule: Q01DX009 (ip), vehicle: saline
[2] = endpoint: mean survival time, dose: 100.0 mg/kg/injection, schedule: Q04DX003 (ip), vehicle: saline with Tween-80
[3] = endpoint: mean survival time, dose: 200.0 mg/kg/injection, schedule: Q04DX003 (ip), vehicle: saline with Tween-80
[4] = endpoint: mean survival time, dose: 400.0 mg/kg/injection, schedule: Q04DX003 (ip), vehicle: saline with Tween-80
[5] = endpoint: mean survival time, dose: 50.0 mg/kg/injection, schedule: Q04DX002 (ip), vehicle: saline with Tween-80
[6] = endpoint: mean survival time, dose: 100.0 mg/kg/injection, schedule: Q01DX001 (ip), vehicle: saline
[7] = endpoint: mean survival time, dose: 200.0 mg/kg/injection, schedule: Q01DX001 (ip), vehicle: saline
[8] = endpoint: mean survival time, dose: 400.0 mg/kg/injection, schedule: Q01DX001 (ip), vehicle: saline
[9] = endpoint: mean survival time, dose: 12.5 mg/kg/injection, schedule: Q04DX002 (ip), vehicle: saline with Tween-80
[10] = endpoint: mean survival time, dose: 100.0 mg/kg/injection, schedule: Q01DX009 (ip), vehicle: saline with Tween-80
[11] = endpoint: mean survival time, dose: 200.0 mg/kg/injection, schedule: Q01DX009 (ip), vehicle: saline with Tween-80
[12] = endpoint: mean survival time, dose: 400.0 mg/kg/injection, schedule: Q01DX009 (ip), vehicle: saline with Tween-80

Measured: T/C

OC1C2COC(O2)C(O)C1O (centres undefined)
inactive: [1] 98 % of control | endpoint: mean survival time, dose: 200.0 mg/kg/injection, schedule: Q01DX009 (ip), vehicle: saline 101 % of control | endpoint: mean survival time, dose: 400.0 mg/kg/injection, schedule: Q01DX009 (ip), vehicle: saline 98 % of control

COc1cc(/C=C2\C(=O)NC(=O)N(c3ccccc3)C2=O)cc(OC)c1OC
inactive: [2] 100 % of control | [3] 100 % of control

CC(C)(C)C(=O)CC(=O)C(C)(C)C.CC(C)(C)C(=O)CC(=O)C(C)(C)C.CC(C)(C)C(=O)CC(=O)C(C)(C)C.[Y]
inactive: [2] 97 % of control | [3] 95 % of control | [4] 91 % of control

O=C(O)C(=CCc1cccc2ccccc12)C(=O)O
inactive: endpoint: mean survival time, dose: 100.0 mg/kg/injection, schedule: Q04DX003 (ip), vehicle: Klucel (hydroxypropylcellulose) (HPC) 101 % of control | endpoint: mean survival time, dose: 200.0 mg/kg/injection, schedule: Q04DX003 (ip), vehicle: Klucel (hydroxypropylcellulose) (HPC) 100 % of control | endpoint: mean survival time, dose: 400.0 mg/kg/injection, schedule: Q04DX003 (ip), vehicle: Klucel (hydroxypropylcellulose) (HPC) 103 % of control

NCCCC(N)(C(=O)O)C(F)F (centres undefined)
inactive: endpoint: median survival time, dose: 50.0 mg/kg/injection, schedule: Q01DX009 (ip), vehicle: distilled water + alcohol 102 % of control | endpoint: median survival time, dose: 100.0 mg/kg/injection, schedule: Q01DX009 (ip), vehicle: distilled water + alcohol 102 % of control | endpoint: median survival time, dose: 200.0 mg/kg/injection, schedule: Q01DX009 (ip), vehicle: distilled water + alcohol 105 % of control | endpoint: median survival time, dose: 400.0 mg/kg/injection, schedule: Q01DX009 (ip), vehicle: distilled water + alcohol 113 % of control | endpoint: median survival time, dose: 800.0 mg/kg/injection, schedule: Q01DX009 (ip), vehicle: distilled water + alcohol 103 % of control | endpoint: median survival time, dose: 1.0 % drug in feed or water or air, schedule: Q#C X 1 (adlb), vehicle: water 103 % of control | endpoint: median survival time, dose: 3.0 % drug in feed or water or air, schedule: Q#C X 1 (adlb), vehicle: water 116 % of control

FC(F)(F)c1nc2nc(Cl)c(Cl)nc2[nH]1
inactive: endpoint: mean survival time, dose: 10.0 mg/kg/injection, schedule: Q01DX009 (ip), vehicle: saline with Tween-80 97 % of control | endpoint: mean survival time, dose: 12.5 mg/kg/injection, schedule: Q01DX009 (ip), vehicle: saline 102 % of control | endpoint: mean survival time, dose: 20.0 mg/kg/injection, schedule: Q01DX009 (ip), vehicle: saline with Tween-80 106 % of control | endpoint: mean survival time, dose: 25.0 mg/kg/injection, schedule: Q01DX009 (ip), vehicle: saline 101 % of control | [1] 107 % of control | endpoint: median survival time, dose: 30.0 mg/kg/injection, schedule: Q04DX003 (ip), vehicle: saline with Tween-80 106 % of control | endpoint: median survival time, dose: 44.0 mg/kg/injection, schedule: Q04DX003 (ip), vehicle: saline with Tween-80 106 % of control | endpoint: median survival time, dose: 66.0 mg/kg/injection, schedule: Q04DX003 (ip), vehicle: saline with Tween-80 110 % of control

CC1NC=NC1C(c1ccccc1)c1ccccc1 (centres undefined)
inactive: endpoint: mean survival time, dose: 25.0 mg/kg/injection, schedule: Q04DX003 (ip), vehicle: saline with Tween-80 102 % of control | endpoint: mean survival time, dose: 50.0 mg/kg/injection, schedule: Q04DX003 (ip), vehicle: saline with Tween-80 109 % of control | [2] 101 % of control

CC(=NCC(C)N=C(C)c1ccccc1O)c1ccccc1O.[Ni] (centres undefined)
inactive: [5] 109 % of control | endpoint: mean survival time, dose: 100.0 mg/kg/injection, schedule: Q04DX002 (ip), vehicle: saline with Tween-80 97 % of control | endpoint: mean survival time, dose: 200.0 mg/kg/injection, schedule: Q04DX002 (ip), vehicle: saline with Tween-80 97 % of control | endpoint: mean survival time, dose: 400.0 mg/kg/injection, schedule: Q04DX002 (ip), vehicle: saline with Tween-80 97 % of control

CC1CCCC2(C)CCC(C(C)(C)O)CC12 (centres undefined)
inactive: [6] 103 % of control | [7] 100 % of control | [8] 103 % of control

COc1ccc2ccccc2c1NC(C)=O
inactive: [6] 102 % of control | [7] 101 % of control | [8] 101 % of control

O=C(OC1(c2ccccc2)C2CCC1CC2)c1ccc([N+](=O)[O-])cc1 (centres undefined)
inactive: [9] 96 % of control | endpoint: mean survival time, dose: 25.0 mg/kg/injection, schedule: Q04DX002 (ip), vehicle: saline with Tween-80 93 % of control | [5] 101 % of control

CCOC(=O)Oc1c(OC)cc(C(=O)O[C@@H]2C[C@@H]3CN4CCc5c([nH]c6cc(OC)ccc56)[C@H]4C[C@@H]3[C@H](C(=O)OC)[C@H]2OC)cc1OC
inactive: endpoint: mean survival time, dose: 25.0 mg/kg/injection, schedule: Q01DX009 (ip), vehicle: saline with Tween-80 104 % of control | [10] 94 % of control | [2] 103 % of control

NNc1ccnc2[nH]ncc12
inactive: endpoint: mean survival time, dose: 6.25 mg/kg/injection, schedule: Q01DX005 (ip), vehicle: saline with Tween-80 106 % of control | endpoint: mean survival time, dose: 12.5 mg/kg/injection, schedule: Q01DX005 (ip), vehicle: saline with Tween-80 103 % of control | endpoint: mean survival time, dose: 25.0 mg/kg/injection, schedule: Q01DX005 (ip), vehicle: saline with Tween-80 101 % of control

C1CC2N=NC1C21CC1.[Cl][Cu][Cl]
inactive: endpoint: mean survival time, dose: 6.25 mg/kg/injection, schedule: Q04DX002 (ip), vehicle: saline with Tween-80 96 % of control | [9] 108 % of control

CCCCc1c(C)[nH]c(=S)[nH]c1=O
inactive: [2] 91 % of control | [3] 96 % of control

C=CCS(=O)(=O)Cc1cccc(C)c1
inactive: endpoint: mean survival time, dose: 100.0 mg/kg/injection, schedule: Q01DX001 (ip), vehicle: Klucel (hydroxypropylcellulose) (HPC) 93 % of control | endpoint: mean survival time, dose: 200.0 mg/kg/injection, schedule: Q01DX001 (ip), vehicle: Klucel (hydroxypropylcellulose) (HPC) 107 % of control | endpoint: mean survival time, dose: 400.0 mg/kg/injection, schedule: Q01DX001 (ip), vehicle: Klucel (hydroxypropylcellulose) (HPC) 101 % of control

NC(=O)c1cn(C2OC(CO)C(O)C2O)c2nc(N)nc(N)c2c1=O (centres undefined)
inactive: endpoint: mean survival time, dose: 12.5 mg/kg/injection, schedule: Q01DX005 (ip), vehicle: water 104 % of control | endpoint: mean survival time, dose: 25.0 mg/kg/injection, schedule: Q01DX005 (ip), vehicle: water 104 % of control | endpoint: mean survival time, dose: 50.0 mg/kg/injection, schedule: Q01DX005 (ip), vehicle: water 104 % of control | endpoint: mean survival time, dose: 100.0 mg/kg/injection, schedule: Q01DX005 (ip), vehicle: water 124 % of control | endpoint: median survival time, dose: 50.0 mg/kg/injection, schedule: Q01DX005 (ip), vehicle: saline with Tween-80 103 % of control and 107 % of control | endpoint: median survival time, dose: 100.0 mg/kg/injection, schedule: Q01DX005 (ip), vehicle: saline with Tween-80 105 % of control and 110 % of control | endpoint: median survival time, dose: 200.0 mg/kg/injection, schedule: Q01DX005 (ip), vehicle: saline with Tween-80 115 % of control and 106 % of control | endpoint: median survival time, dose: 400.0 mg/kg/injection, schedule: Q01DX005 (ip), vehicle: saline with Tween-80 117 % of control

OCCNC(=S)SCc1ccccc1
inactive: [2] 94 % of control | [3] 100 % of control | [4] 98 % of control

O=S=Nc1ccc(S(=O)(=O)c2ccc(N=S=O)cc2)cc1
inactive: endpoint: mean survival time, dose: 50.0 mg/kg/injection, schedule: Q01DX009 (ip), vehicle: saline with Tween-80 96 % of control | [2] 95 % of control | [11] 101 % of control | [3] 95 % of control

COc1cc(CN(C)CCO)ccc1OCc1ccccc1
inactive: [2] 102 % of control | [3] 96 % of control

O=C1c2ccccc2C(=O)N1c1c2ccccc2cc2ccccc12
inactive: [10] 95 % of control | [11] 101 % of control | [12] 90 % of control

CC(=O)OC1COC(n2cnc3c(=S)nc[nH]c32)C(OC(C)=O)C1OC(C)=O (centres undefined)
inactive: [6] 97 % of control | [7] 102 % of control | [8] 100 % of control

COc1ccc(C=Nc2ccc(C)cc2)cc1
inactive: [10] 108 % of control | [2] 103 % of control | [11] 98 % of control | [3] 115 % of control | [12] 104 % of control | [4] 116 % of control
